Assay results: publication PMC11995724, “Antibiotic target discovery by integrated phenotypic and activity-based profiling of electrophilic fragments” (Cell chemical biology, 2025)
Structures can show the parent of a compound that is named as a salt.

Assay: in vitro
Conditions: human, hek293t cells

| SMILES | viability at 48 h, 25 µM |
| --- | --- |
| Cc1ccc(NC(=O)C2CSCN2C(=O)CCl)c(C)c1 (stereo not drawn) [5-M07, 3-(2-chloroacetyl)-N-(2,4-dimethylphenyl)-1,3-thiazolidine-4-carboxamide] | 0.0812% |
| Cc1csc(COC2CCN(C(=O)CCl)C2)n1 (stereo not drawn) [5-M08, 2-chloro-1-{3-[(4-methyl-1,3-thiazol-2-yl)methoxy]pyrrolidin-1-yl}ethan-1-one] | 1.8% |
| O=C(CCl)NC1CCSc2ccc(F)cc21 (stereo not drawn) [5-M09, 2-chloro-N-(6-fluoro-3,4-dihydro-2H-1-benzothiopyran-4-yl)acetamide] | 0.504% |
| O=C(CCl)N1CCCC1c1nc(Cc2ccc(F)cc2)no1 (stereo not drawn) [5-M10, 2-chloro-1-(2-{3-[(4-fluorophenyl)methyl]-1,2,4-oxadiazol-5-yl}pyrrolidin-1-yl)ethan-1-one] | 0.55% |
| O=C(CCl)N1C2CCC1c1ccccc12 [5-M11, 1-{11-azatricyclo[6.2.1.0,2,7]undeca-2,4,6-trien-11-yl}-2-chloroethan-1-one] | -0.105% |
| CC(C)C(C)N(Cc1ccns1)C(=O)CCl (stereo not drawn) [5-M12, 2-chloro-N-(3-methylbutan-2-yl)-N-[(1,2-thiazol-5-yl)methyl]acetamide] | 9.67% |
| O=C(CCl)NC(c1ccccc1)c1nccs1 (stereo not drawn) [5-M13, 2-chloro-N-[phenyl(1,3-thiazol-2-yl)methyl]acetamide] | 2.38% |
| Cc1ccc(F)c(N2CCC(NC(=O)CCl)CC2)c1 [5-M14, 2-chloro-N-[1-(2-fluoro-5-methylphenyl)piperidin-4-yl]acetamide] | 134% |
| CC(Cl)C(=O)NC(C)c1ccc(Cl)cc1Cl (stereo not drawn) [5-M15, 2-chloro-N-[1-(2,4-dichlorophenyl)ethyl]propanamide] | 69% |
| Cc1cc(C)n2c(-c3c(Cl)cccc3NC(=O)CCl)nnc2n1 [5-M16, 2-chloro-N-(3-chloro-2-{5,7-dimethyl-[1,2,4]triazolo[4,3-a]pyrimidin-3-yl}phenyl)acetamide] | 1.81% |
| O=C(CCl)N1N=C(c2ccco2)CC1c1cccc(Cl)c1 (stereo not drawn) [5-M17, 2-chloro-1-[5-(3-chlorophenyl)-3-(furan-2-yl)-4,5-dihydro-1H-pyrazol-1-yl]ethan-1-one] | 0.403% |
| Cc1nn(C)c(C)c1C(NC(=O)CCl)C(F)(F)F (stereo not drawn) [5-M18, 2-chloro-N-[2,2,2-trifluoro-1-(1,3,5-trimethyl-1H-pyrazol-4-yl)ethyl]acetamide] | 1.44% |
| CC(Cl)C(=O)NC1CCCc2ccccc21 (stereo not drawn) [5-M19, 2-chloro-N-(1,2,3,4-tetrahydronaphthalen-1-yl)propanamide] | 74.2% |
| CC(=O)NC1Cc2ccccc2N(C(=O)CCl)C1 (stereo not drawn) [5-M20, N-[1-(2-chloroacetyl)-1,2,3,4-tetrahydroquinolin-3-yl]acetamide] | 1.81% |
| COc1ccccc1CNC(=O)C(C)Cl (stereo not drawn) [5-M21, 2-chloro-N-[(2-methoxyphenyl)methyl]propanamide] | 68.7% |
| CN(C)c1nc(N2CCOCC2)ncc1NC(=O)CCl [5-M22, 2-chloro-N-[4-(dimethylamino)-2-(morpholin-4-yl)pyrimidin-5-yl]acetamide] | 38.9% |
| Cc1ccc(CN(Cc2c(C)noc2C)C(=O)CCl)c(C)c1 [5-N03, 2-chloro-N-[(3,5-dimethyl-1,2-oxazol-4-yl)methyl]-N-[(2,4-dimethylphenyl)methyl]acetamide] | 1.14% |
| CC(Cl)C(=O)Nc1ccc(N(C)C)cc1 (stereo not drawn) [5-N04, 2-chloro-N-[4-(dimethylamino)phenyl]propanamide hydrochloride] | 99.3% |
| O=C(NCc1ccco1)C1CCCN1C(=O)CCl (stereo not drawn) [5-N05, 1-(2-chloroacetyl)-N-[(furan-2-yl)methyl]pyrrolidine-2-carboxamide] | 1.39% |
| CC(=O)Nc1ccc(NC(=O)C(C)Cl)cc1 (stereo not drawn) [5-N06, 2-chloro-N-(4-acetamidophenyl)propanamide] | 101% |
| CN(C(=O)CCl)C1CCCCC1 [5-N07, 2-chloro-N-cyclohexyl-N-methylacetamide] | 0.964% |
| O=C(CCl)Nc1ccc(Cl)cc1[N+](=O)[O-] [5-N08, 2-chloro-N-(4-chloro-2-nitrophenyl)acetamide] | 76.9% |
| N#Cc1ccc2c(c1)CCN2C(=O)CCl [5-N09, 1-(2-chloroacetyl)-2,3-dihydro-1H-indole-5-carbonitrile] | 0.856% |
| CN(C1CCCCC1)S(=O)(=O)c1ccccc1NC(=O)CCl [5-N10, 2-chloro-N-{2-[cyclohexyl(methyl)sulfamoyl]phenyl}acetamide] | 0.725% |
| CC(Cc1ccc(Cl)s1)NC(=O)CCl (stereo not drawn) [5-N11, 2-chloro-N-[1-(5-chlorothiophen-2-yl)propan-2-yl]acetamide] | 0.992% |
| CC(Cl)C(=O)Nc1cccc2ccccc12 (stereo not drawn) [5-N12, 2-chloro-N-(naphthalen-1-yl)propanamide] | 99.8% |
| C=CC(NC(=O)CCl)C1CCOCC1 (stereo not drawn) [5-N13, 2-chloro-N-[1-(oxan-4-yl)prop-2-en-1-yl]acetamide] | 111% |

| SMILES | viability at 48 h, 25 µM |
| --- | --- |
| COc1ccc([N+](=O)[O-])cc1NC(=O)C(C)Cl (stereo not drawn) [5-N14, 2-chloro-N-(2-methoxy-5-nitrophenyl)propanamide] | 96.3% |
| CC(Cl)C(=O)NC(C)c1nnc(-c2cccc(F)c2)s1 (stereo not drawn) [5-N15, 2-chloro-N-{1-[5-(3-fluorophenyl)-1,3,4-thiadiazol-2-yl]ethyl}propanamide] | 98.1% |
| O=C(CCl)N(CC1CCCO1)C1CCS(=O)(=O)C1 (stereo not drawn) [5-N16, 2-chloro-N-(1,1-dioxo-1lambda6-thiolan-3-yl)-N-[(oxolan-2-yl)methyl]acetamide] | 2.2% |
| CC(Cl)C(=O)NC1CCc2cc(C#N)ccc21 (stereo not drawn) [5-N17, 2-chloro-N-(5-cyano-2,3-dihydro-1H-inden-1-yl)propanamide] | 105% |
| O=C(CCl)N(Cc1ccsc1)C1CC1 [5-N18, 2-chloro-N-cyclopropyl-N-[(thiophen-3-yl)methyl]acetamide] | 1.23% |
| CC(Cl)C(=O)NCCC1=CCCCCC1 (stereo not drawn) [5-N19, 2-chloro-N-[2-(cyclohept-1-en-1-yl)ethyl]propanamide] | 120% |
| Cc1c(Cl)cccc1NC(=O)CNC(=O)CCl [5-N20, 2-chloro-N-{[(3-chloro-2-methylphenyl)carbamoyl]methyl}acetamide] | 1.4% |
| CCOC(=O)c1cnn2ccc(NC(=O)C(C)Cl)cc12 (stereo not drawn) [5-N21, ethyl 5-(2-chloropropanamido)pyrazolo[1,5-a]pyridine-3-carboxylate] | 89.8% |
| CCSc1nnc(NC(=O)CCl)s1 [5-N22, 2-chloro-N-[5-(ethylsulfanyl)-1,3,4-thiadiazol-2-yl]acetamide] | 7.36% |
| Cc1ccc(CNC(=O)C(C)Cl)cc1 (stereo not drawn) [5-O03, 2-chloro-N-[(4-methylphenyl)methyl]propanamide] | 94.7% |
| O=C(CCl)N1CCN(Cc2ccon2)CC1 [5-O04, 2-chloro-1-{4-[(1,2-oxazol-3-yl)methyl]piperazin-1-yl}ethan-1-one] | 104% |
| O=C(CCl)NCCc1cccc(Cl)c1 [5-O05, 2-chloro-N-[2-(3-chlorophenyl)ethyl]acetamide] | 36.9% |
| CC(NC(=O)CCl)c1cn(-c2ccccc2)nn1 (stereo not drawn) [5-O06, 2-chloro-N-[1-(1-phenyl-1H-1,2,3-triazol-4-yl)ethyl]acetamide] | 4.63% |
| O=C(CCl)NC1CCN(C(=O)c2ccco2)c2ccccc21 (stereo not drawn) [5-O07, 2-chloro-N-[1-(furan-2-carbonyl)-1,2,3,4-tetrahydroquinolin-4-yl]acetamide] | 1.59% |
| CC1CC(NC(=O)CCl)C(=O)N1c1cnn(C)c1 (stereo not drawn) [5-O08, 2-chloro-N-[5-methyl-1-(1-methyl-1H-pyrazol-4-yl)-2-oxopyrrolidin-3-yl]acetamide] | 100% |
| O=C(CCl)NC1CCCc2cn(C3CCCC3)nc21 (stereo not drawn) [5-O09, 2-chloro-N-(2-cyclopentyl-4,5,6,7-tetrahydro-2H-indazol-7-yl)acetamide] | 20.7% |
| C#Cc1cccc(N(Cc2cc3n(n2)CCCO3)C(=O)CCl)c1 [5-O10, 2-chloro-N-(3-ethynylphenyl)-N-({5H,6H,7H-pyrazolo[3,2-b][1,3]oxazin-2-yl}methyl)acetamide] | 0.703% |
| COc1ccc(CNC(=O)CCl)cc1OC [5-O11, 2-chloro-N-[(3,4-dimethoxyphenyl)methyl]acetamide] | 23.8% |
| CS(=O)(=O)N1CCC(N(CC(F)F)C(=O)CCl)CC1 [5-O12, 2-chloro-N-(2,2-difluoroethyl)-N-(1-methanesulfonylpiperidin-4-yl)acetamide] | 1.77% |
| O=C(CCl)Nc1ccnn1Cc1cccs1 [5-O13, 2-chloro-N-{1-[(thiophen-2-yl)methyl]-1H-pyrazol-5-yl}acetamide] | 0.591% |
| CCC(NC(=O)CCl)c1nc(C)n[nH]1 (stereo not drawn) [5-O14, 2-chloro-N-[1-(3-methyl-1H-1,2,4-triazol-5-yl)propyl]acetamide] | 96.8% |
| CC1CN(S(=O)(=O)c2ccc(NC(=O)CCl)cc2)CC(C)O1 (stereo not drawn) [5-O15, 2-chloro-N-{4-[(2,6-dimethylmorpholin-4-yl)sulfonyl]phenyl}acetamide] | 1.43% |
| COc1ccccc1C1CSCCCN1C(=O)CCl (stereo not drawn) [5-O16, 2-chloro-1-[3-(2-methoxyphenyl)-1,4-thiazepan-4-yl]ethan-1-one] | 78.1% |
| COc1ccc(N(Cc2cccs2)C(=O)CCl)cc1 [5-O17, 2-chloro-N-(4-methoxyphenyl)-N-[(thiophen-2-yl)methyl]acetamide] | 0.692% |
| O=C(CCl)N1CC(NC(=O)C(F)(F)F)CCC1C(F)(F)F (stereo not drawn) [5-O18, N-[1-(2-chloroacetyl)-6-(trifluoromethyl)piperidin-3-yl]-2,2,2-trifluoroacetamide] | 6.17% |
| CC(=O)c1ccccc1NC(=O)C(C)Cl (stereo not drawn) [5-O19, N-(2-acetylphenyl)-2-chloropropanamide] | 90.1% |
| COC1CCC(N(Cc2cc(C)oc2C)C(=O)CCl)CC1 (stereo not drawn) [5-O20, 2-chloro-N-[(2,5-dimethylfuran-3-yl)methyl]-N-(4-methoxycyclohexyl)acetamide] | 2.21% |
